Data: the supplement of paper PMC10307832

Columns and labels:
Assay in all cases: relative viability (nuclei count vs DMSO), 5 days (fraction); higher = more cells survive
Linifanib + Trametinib = compound: Cc1ccc(F)c(NC(=O)Nc2ccc(-c3cccc4[nH]nc(N)c34)cc2)c1 [Linifanib] + CC(=O)Nc1cccc(-n2c(=O)n(C3CC3)c(=O)c3c(Nc4ccc(I)cc4F)n(C)c(=O)c(C)c32)c1 [Trametinib] (partner 0.02 µM)
Method in brief: (§1)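 Lung cancer cell lines, seeded in 1536-well plates, were treated the following day by pin tool with a single drug or with five library-drug doses (not always all listed) in √10 steps on top of a fixed anchor-drug dose. Cells were fixed and nuclei stained in one step after 5 days, and nuclei were counted. Relative viability is the nuclei count for treated wells divided by that for vehicle wells, reported as medians of duplicate plates.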

Linifanib + Linsitinib = compound: Cc1ccc(F)c(NC(=O)Nc2ccc(-c3cccc4[nH]nc(N)c34)cc2)c1 [Linifanib] + C[C@]1(O)C[C@@H](c2nc(-c3ccc4ccc(-c5ccccc5)nc4c3)c3c(N)nccn32)C1 [Linsitinib] (partner 1 µM)
Method in brief: as §1

Linifanib + Tozasertib = compound: Cc1ccc(F)c(NC(=O)Nc2ccc(-c3cccc4[nH]nc(N)c34)cc2)c1 [Linifanib] + Cc1cc(Nc2cc(N3CCN(C)CC3)nc(Sc3ccc(NC(=O)C4CC4)cc3)n2)n[nH]1 [Tozasertib] (partner 0.1 µM)
Method in brief: as §1

Linifanib + Alpelisib = compound: Cc1ccc(F)c(NC(=O)Nc2ccc(-c3cccc4[nH]nc(N)c34)cc2)c1 [Linifanib] + Cc1nc(NC(=O)N2CCC[C@H]2C(N)=O)sc1-c1ccnc(C(C)(C)C(F)(F)F)c1 [Alpelisib] (partner 2 µM)
Method in brief: as §1

Linifanib + Phenformin = compound: Cc1ccc(F)c(NC(=O)Nc2ccc(-c3cccc4[nH]nc(N)c34)cc2)c1 [Linifanib] + N=C(N)NC(=N)NCCc1ccccc1 [Phenformin] (partner 250 µM)
Method in brief: as §1

Linifanib + Olaparib = compound: Cc1ccc(F)c(NC(=O)Nc2ccc(-c3cccc4[nH]nc(N)c34)cc2)c1 [Linifanib] + O=C(c1cc(Cc2n[nH]c(=O)c3ccccc23)ccc1F)N1CCN(C(=O)C2CC2)CC1 [Olaparib] (partner 8 µM)
Method in brief: as §1

| Cell Line | relative viability (Linifanib + Trametinib; first compound 0.03162 µM) | relative viability (Linifanib + Trametinib; first compound 0.1 µM) | relative viability (Linifanib + Trametinib; first compound 0.3162 µM) | relative viability (Linifanib + Linsitinib; first compound 0.03162 µM) | relative viability (Linifanib + Linsitinib; first compound 0.1 µM) | relative viability (Linifanib + Linsitinib; first compound 0.3162 µM) | relative viability (Linifanib + Tozasertib; first compound 0.03162 µM) | relative viability (Linifanib + Tozasertib; first compound 0.1 µM) | relative viability (Linifanib + Tozasertib; first compound 0.3162 µM) | relative viability (Linifanib + Alpelisib; first compound 0.03162 µM) | relative viability (Linifanib + Alpelisib; first compound 0.1 µM) | relative viability (Linifanib + Alpelisib; first compound 0.3162 µM) | relative viability (Linifanib + Phenformin; first compound 0.03162 µM) | relative viability (Linifanib + Phenformin; first compound 0.1 µM) | relative viability (Linifanib + Phenformin; first compound 0.3162 µM) | relative viability (Linifanib + Olaparib; first compound 0.03162 µM) | relative viability (Linifanib + Olaparib; first compound 0.1 µM) | relative viability (Linifanib + Olaparib; first compound 0.3162 µM) |
| --- | --- | --- | --- | --- | --- | --- | --- | --- | --- | --- | --- | --- | --- | --- | --- | --- | --- | --- |
| NCI-H1651 | 0.896 | 0.787 | 0.787 | 0.997 | 1.14 | 0.9 | 0.618 | 0.832 | 0.695 | 0.883 | 0.838 | 0.996 | 0.314 | 0.368 | 0.309 | 0.181 | 0.202 | 0.195 |
| NCI-H2126 | 0.584 | 0.571 | 0.547 | 0.696 | 0.731 | 0.753 | 0.847 | 0.998 | 0.806 | 0.791 | 0.793 | 0.765 | 0.557 | 0.535 | 0.542 | 0.986 | 0.912 | 0.9 |
| LCLC-103H | 0.721 | 0.669 | 0.64 | 1.13 | 1.07 | 0.978 | 0.482 | 0.461 | 0.423 | 0.838 | 0.927 | 0.894 | 0.329 | 0.338 | 0.329 | 0.752 | 0.78 | 0.732 |
| NCI-H23 | 0.399 | 0.487 | 0.396 | 0.536 | 0.798 | 0.475 | 0.366 | 0.39 | 0.329 | 0.563 | 0.807 | 0.76 | 0.773 | 0.838 | 0.749 | 0.358 | 0.347 | 0.186 |
| EPLC-272H | 0.254 | 0.292 | 0.274 | 1.04 | 1.2 | 1.15 | 0.346 | 0.209 | 0.181 | 0.75 | 1.02 | 0.909 | 0.298 | 0.318 | 0.325 | 0.728 | 1.05 | 0.722 |
| NCI-H1975 | 0.298 | 0.525 | 0.355 | 0.898 | 0.98 | 1.02 | 0.681 | 0.901 | 0.722 | 0.631 | 0.715 | 0.65 | 0.418 | 0.433 | 0.406 | 0.797 | 0.881 | 0.796 |
| NCI-H2170 | 0.922 | 0.855 | 0.937 | – | – | – | 0.706 | 0.716 | 0.712 | 0.787 | 0.875 | 0.776 | 0.426 | 0.411 | 0.378 | 0.612 | 0.701 | 0.566 |
| NCI-H358 | 0.121 | 0.121 | 0.137 | 0.691 | 0.738 | 0.693 | 0.113 | 0.112 | 0.106 | 0.897 | 0.879 | 0.795 | 0.375 | 0.385 | 0.322 | 0.521 | 0.771 | 0.55 |
| PC-3 [JPC-3] | 0.706 | 0.756 | 0.659 | 0.971 | 0.903 | 1 | 0.893 | 0.979 | 0.811 | 1.05 | 1.02 | 1.04 | 0.491 | 0.474 | 0.442 | 1.09 | 1.14 | 1.13 |
| A-427 | 0.755 | 0.806 | 0.836 | 1.1 | 1.11 | 1.08 | 0.227 | 0.204 | 0.197 | 1.13 | 1.16 | 1.09 | 0.346 | 0.428 | 0.294 | 0.722 | 0.766 | 0.732 |
| LU99A | 0.558 | 0.582 | 0.587 | 0.503 | 0.551 | 0.505 | 0.277 | 0.306 | 0.317 | 0.574 | 0.618 | 0.539 | 0.878 | 0.892 | 0.793 | 0.289 | 0.25 | 0.287 |
| H3255 | 0.629 | 0.698 | 0.554 | 0.976 | 1.14 | 0.845 | 0.767 | 0.662 | 0.601 | 0.752 | 0.787 | 0.706 | 0.345 | 0.203 | 0.438 | 0.619 | 0.567 | 0.574 |
| NCI-H1437 | 0.559 | 0.618 | 0.45 | 1.03 | 1.14 | 0.814 | 0.375 | 0.444 | 0.389 | 1.02 | 0.999 | 0.868 | 0.32 | 0.296 | 0.276 | 0.631 | 0.653 | 0.603 |
| LC-2-ad | 0.87 | 0.924 | 0.824 | 0.691 | 0.851 | 0.766 | 0.416 | 0.445 | 0.472 | 0.749 | 0.912 | 0.752 | 0.645 | 0.609 | 0.505 | 0.729 | 0.705 | 0.55 |
| NCI-H1793 | 0.372 | 0.56 | 0.434 | 0.897 | 0.976 | 0.817 | 0.253 | 0.467 | 0.372 | 0.664 | 0.763 | 0.681 | 0.278 | 0.379 | 0.321 | 0.848 | 1.13 | 0.802 |
| NCI-H2342 | 0.848 | 0.744 | 0.878 | – | – | – | 0.544 | 0.492 | 0.529 | – | – | – | 0.679 | 0.624 | 0.667 | 0.512 | 0.481 | 0.381 |
| ChaGo-K-1 | 0.904 | 0.942 | 0.86 | – | – | – | 0.239 | 0.245 | 0.228 | – | – | – | 0.488 | 0.581 | 0.478 | 0.456 | 0.445 | 0.448 |
| SW 900 | 0.76 | 0.83 | 0.912 | – | – | – | 0.392 | 0.614 | 0.692 | – | – | – | 0.659 | 0.779 | 0.575 | 0.909 | 1.04 | 0.75 |
